The text below walks through data of US9770026B2, “Substituted pyrimidine compound and uses thereof” (Shenyang Sinochem Agrochemicals R&D Co., Ltd., priority 2012, dated 2017).

Test [1] has as its system armyworm. Kind of test: bioactivity test against armyworm, airbrush spray. It counts as in vivo. The note with it: 72 h, read-out: Insecticidal activity against armyworm (%); for pest or weed control at 600 µg/mL: 600 mg/L.
In test [2] the test system is wheat powdery mildew. Kind of test: protectant activity in vivo against wheat powdery mildew. The note with it: Triticum aestivum, 168 h, protectant activity; for pest or weed control at 6.25 µg/mL: read-out: control effect against wheat powdery mildew (%), 6.25 mg/L; for pest or weed control at 25 µg/mL: read-out: control effect against wheat powdery mildew (%), 25 mg/L; for pest or weed control at 100 µg/mL: read-out: control effect against wheat powdery mildew (%), 100 mg/L; for pest or weed control at 400 µg/mL: read-out: control effect against wheat powdery mildew (%), 400 mg/L.

Test [3] deals with cucumber gray mold. The test is described as follows: fungicidal activity in vitro (inhibition rate) against cucumber gray mold. It counts as cell-based. To be noted: 25 ppm, in vitro; read-out: inhibition rate against cucumber gray mold.
In test [4] the test system is Green peach aphids (Myzus Persicae Sulzer). The test is described as follows: bioactivity test against green peach aphid, airbrush foliar spray. It counts as in vivo. To be noted: Myzus persicae, foliar, 48 h, contrastive test, read-out: Insecticidal activity against peach aphid (%); for pest or weed control at 600 µg/mL: 600 mg/L; for pest or weed control at 10 µg/mL: 10 mg/L; for pest or weed control at 100 µg/mL: 100 mg/L. The essentials:
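Aphids (15-30 per cabbage leaf disc) on moist filter paper were airbrush-sprayed at 10 psi, 0.5 mL, with compound from acetone:methanol (1:1) diluted in water with 0.1% tween 80. Held at 25±1 C, 60±5% RH; survivors counted after 48 hrs to give death rates.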

Test [5] has as its system Diamond back moth. The test is described as follows: insecticidal activity against diamond back moth, airbrush spray. The note with it: 72 h, 600 mg/L. It counts as in vivo. The essentials:
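Airbrush leaf-disc spray test: both faces of 2 cm cabbage discs received 0.5 ml of test solution at 0.7 kg/cm^2. Solutions were made in acetone:methanol (1:1) and brought to concentration with 0.1% Tween 80 in water. Ten second-instar larvae per disc, triplicates, were held at 25° C and 60˜70% R.H., with mortality recorded at 72 hrs.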

Test [6] deals with corn rust. Kind of test: protectant activity in vivo against corn rust. To be noted: Zea mays, 168 h, protectant activity; for pest or weed control at 6.25 µg/mL: read-out: control effect against corn rust (%), 6.25 mg/L; for pest or weed control at 25 µg/mL: read-out: control effect against corn rust (%), 25 mg/L; for pest or weed control at 100 µg/mL: read-out: control effect against corn rust (%), 100 mg/L; for pest or weed control at 400 µg/mL: read-out: control effect against corn rust (%), 400 mg/L.

The subject of test [7] is cucumber downy mildew. The test is described as follows: protectant activity in vivo against cucumber downy mildew. To be noted: Cucumis sativus, 168 h, protectant activity; for pest or weed control at 25 µg/mL: read-out: control effect against cucumber downy mildew (%), 25 mg/L; for pest or weed control at 50 µg/mL: read-out: control effect against cucumber downy mildew (%), 50 mg/L; for pest or weed control at 100 µg/mL: read-out: control effect against cucumber downy mildew (%), 100 mg/L; for pest or weed control at 400 µg/mL: read-out: control effect against cucumber downy mildew (%), 400 mg/L.

The test system of test [8] is carmine spider mite. The test is described as follows: bioactivity test against carmine spider mite, airbrush spray. It counts as in vivo. The note with it: Tetranychus cinnabarinus, 72 h, contrastive test, read-out: Insecticidal activity against carmine spider mite (% ); for pest or weed control at 10 µg/mL: 10 mg/L; for pest or weed control at 100 µg/mL: 100 mg/L; for pest or weed control at 600 µg/mL: 600 mg/L. The essentials: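 Broadbean seedlings infested with adult mites were sprayed with compound (acetone/methanol stock diluted in 0.1% Tween 80 water) by airbrush at 0.7 kg/cm^2, 0.5 ml. Three replicates were run. Mortality was scored after 72 hrs.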

Take `Cc1ncnc(NCc2ccc(Oc3ccc(C(F)(F)F)cn3)cc2)c1Cl` [CK22, reference compound]: the pest or weed control at 600 µg/mL in test [1] amounted to 0%. Further, in test [2], the pest or weed control at 6.25 µg/mL is 0%, the pest or weed control at 25 µg/mL was determined as 50%, the pest or weed control at 100 µg/mL was found to be 90% and the pest or weed control at 400 µg/mL was 100%. For the same compound, the inhibition at 25 ppm in test [3] amounted to 0%. For the same compound, the pest or weed control at 600 µg/mL in test [4] was found to be 0%. The pest or weed control at 600 µg/mL in test [5] stood at 0%. Also, in test [6], the pest or weed control at 6.25 µg/mL came out at 0%, the pest or weed control at 25 µg/mL amounted to 40%, the pest or weed control at 100 µg/mL is 100% and the pest or weed control at 400 µg/mL amounted to 100%. In addition, in test [7], the pest or weed control at 25 µg/mL amounted to 60%, the pest or weed control at 50 µg/mL came to 75%, the pest or weed control at 100 µg/mL is 98% and the pest or weed control at 400 µg/mL was 100%.

Turning to `FC(F)(F)c1ccc(Oc2ccc(CCNc3ncnc(Cl)c3Cl)cc2)nc1` [CK73, reference compound], the pest or weed control at 10 µg/mL in test [1] (10 mg/L) worked out at 0%; in test [8], 24%; in test [4] it was 0%. Moreover, the pest or weed control at 100 µg/mL in test [1] (100 mg/L) amounted to 50%; in test [8] it was 85%; in test [4] it was 100%; in test [6] it was 90%; in test [7], 98%. For the same compound, the pest or weed control at 600 µg/mL in test [1], in test [8] and in test [4] was 100% each time. Besides, the values for the pest or weed control at 400 µg/mL in test [2], in test [6] and in test [7] were 40%, 100% and 98%, respectively. In test [3], the inhibition at 25 ppm stood at 0%. For the same compound, the pest or weed control at 6.25 µg/mL in test [6] is 0%. Moreover, the pest or weed control at 25 µg/mL in test [6] was 10%; in test [7], 60%. Moreover, the pest or weed control at 50 µg/mL in test [7] was determined as 95%.

As for `Cc1nc(Cl)cc(NCCc2ccc(Oc3ccc(C#N)cn3)cc2)n1` [CK84, reference compound], the pest or weed control at 600 µg/mL in test [1] came to 0%. Further, in test [8], the pest or weed control at 10 µg/mL came out at 0%, the pest or weed control at 100 µg/mL was 0% and the pest or weed control at 600 µg/mL stood at 100%. Besides, the inhibition at 25 ppm in test [3] came to 0%. In test [4], the pest or weed control at 10 µg/mL was determined as 7%, the pest or weed control at 100 µg/mL is 43% and the pest or weed control at 600 µg/mL was 100%. Besides, the pest or weed control at 600 µg/mL in test [5] is 0%. For the same compound, in test [6], the pest or weed control at 6.25 µg/mL turned out to be 0%, the pest or weed control at 25 µg/mL is 60%, the pest or weed control at 100 µg/mL was determined as 90% and the pest or weed control at 400 µg/mL amounted to 100%. In test [7], the pest or weed control at 25 µg/mL amounted to 85%, the pest or weed control at 50 µg/mL worked out at 100%, the pest or weed control at 100 µg/mL came to 100% and the pest or weed control at 400 µg/mL came out at 100%.

As for `N#Cc1ccc(Oc2ccc(CCNc3cc(Cl)ncn3)cc2)nc1` [CK83, reference compound], in test [1], the pest or weed control at 600 µg/mL was determined as 29%. In test [2], the pest or weed control at 6.25 µg/mL was determined as 40%, the pest or weed control at 25 µg/mL came to 70%, the pest or weed control at 100 µg/mL was 100% and the pest or weed control at 400 µg/mL worked out at 100%. The inhibition at 25 ppm in test [3] is 0%. In test [4], the pest or weed control at 10 µg/mL is 11%, the pest or weed control at 100 µg/mL was 100% and the pest or weed control at 600 µg/mL was found to be 100%. This compound also yielded a pest or weed control at 600 µg/mL in test [5] of 17%. Also, in test [6], the pest or weed control at 400 µg/mL was determined as 30%. For the same compound, in test [7], the pest or weed control at 25 µg/mL was determined as 85%, the pest or weed control at 50 µg/mL was found to be 98%, the pest or weed control at 100 µg/mL was 100% and the pest or weed control at 400 µg/mL is 100%.

What is called inhibition is the drop in the measured response relative to a control, in per cent.
